Data from EPA's ToxValDB 9.5 (doi:10.2903/j.efsa.2009.1167).

Columns and labels:
[1] = system: Rattus norvegicus
[2] = system: Mus musculus; details: chronic; duration: 18 months; organ weight
[3] = system: Canidae; details: chronic, Dog Other
[4] = chronic, duration: 2 years, histopathology: nonneoplastic
[5] = reproduction developmental, reproduction

Structure (SMILES): CC(C1CC1)C(O)(Cn1cncn1)c1ccc(Cl)cc1 (stereo not given) [Cyproconazole]
- NOAEL ([1]; chronic, organ weight): 2 mg/kg-day
- NOAEL ([1]; developmental, development): 2 mg/kg-day

Structure (SMILES): CC(C)(C)[C@@H](O)/C(=C\c1ccc(Cl)cc1Cl)n1cncn1 [Diniconazole-M]
- NOAEL [1, 4]: 5 mg/kg-day
- NOAEL ([1]; developmental, development): 5 mg/kg-day

Structure (SMILES): Fc1ccc([C@@]2(Cn3cncn3)O[C@@H]2c2ccccc2Cl)cc1 [Epoxiconazole]
- NOAEL [2]: 0.8 mg/kg-day
- NOAEL [1, 5]: 2.3 mg/kg-day

Structure (SMILES): C[Si](Cn1cncn1)(c1ccc(F)cc1)c1ccc(F)cc1 [Flusilazole]
- NOAEL ([1]; reproduction developmental, organ weight): 0.5 mg/kg-day
- NOAEL ([3]; duration: 1 years): 0.2 mg/kg-day

Structure (SMILES): CCCCC(C#N)(Cn1cncn1)c1ccc(Cl)cc1 (stereo not given) [Myclobutanil]
- NOAEL [1, 4]: 2.5 mg/kg-day

Structure (SMILES): CCCC1COC(Cn2cncn2)(c2ccc(Cl)cc2Cl)O1 (stereo not given) [Propiconazole]
- NOAEL ([1]; developmental, development): 30 mg/kg-day
- NOAEL [1, 5]: > 2.8 mg/kg-day

Structure (SMILES): CC(C)(C)C(O)(CCc1ccc(Cl)cc1)Cn1cncn1 (stereo not given) [Tebuconazole]
- NOAEL ([3]; histopathology: nonneoplastic): 3 mg/kg-day

Structure (SMILES): CC(C)(C)C(=O)C(Oc1ccc(Cl)cc1)n1cncn1 (stereo not given) [Triadimefon]
- NOAEL ([1]; acute): 2 mg/kg-day
- NOAEL ([1]; subchronic, duration: 13 weeks): 3.4 mg/kg-day

Structure (SMILES): CC(C)(C)C(O)C(Oc1ccc(Cl)cc1)n1cncn1 (stereo not given) [Triadimenol]
- NOAEL ([3]; duration: 2 years): 4 mg/kg-day
